Source: publication PMC7146544, “Dual Plasmepsin-Targeting Antimalarial Agents Disrupt Multiple Stages of the Malaria Parasite Life Cycle” (Cell Host & Microbe, 2020)

Legend:
[1] = target: T1, P. falciparum aspartic protease, PMV (Plasmodium falciparum, UniProt Q8I6Z5); test: Peptide cleavage (FRET) assay, PMV; assay type: biochemical; conditions: calculated from IC50 with Cheng-Prusoff equation
T1 construct: made in house

[2] = target: recombinant PMX protein (rPMX) (Plasmodium falciparum, UniProt Q8IAS0); assay type: biochemical, P. falciparum; set-up: full-length enzyme with prodomain and catalytic domain (pro-cat); 8xHis (C); made in house; host or cells: Spodoptera frugiperda (sf21) insect cells, baculovirus, secreted; compound added to the expression culture; conditions: insect cell expression
recombinant PMX protein (rPMX), sequence (Q8IAS0 27-573): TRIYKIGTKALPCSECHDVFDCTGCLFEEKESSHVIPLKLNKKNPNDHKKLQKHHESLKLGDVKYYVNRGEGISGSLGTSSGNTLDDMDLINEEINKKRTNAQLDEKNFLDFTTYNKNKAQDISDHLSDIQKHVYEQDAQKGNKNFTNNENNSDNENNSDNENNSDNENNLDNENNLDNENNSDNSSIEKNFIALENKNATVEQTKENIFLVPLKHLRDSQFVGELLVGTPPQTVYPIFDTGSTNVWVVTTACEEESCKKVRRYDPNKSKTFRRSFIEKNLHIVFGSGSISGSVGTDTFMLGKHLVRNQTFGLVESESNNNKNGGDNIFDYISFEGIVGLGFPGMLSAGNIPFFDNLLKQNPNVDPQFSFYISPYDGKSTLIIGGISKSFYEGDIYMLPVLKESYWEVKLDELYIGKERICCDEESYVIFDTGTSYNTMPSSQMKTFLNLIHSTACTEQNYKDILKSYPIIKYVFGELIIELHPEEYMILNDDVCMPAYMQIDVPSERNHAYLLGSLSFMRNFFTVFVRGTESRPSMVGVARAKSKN

[3] = system: P. falciparum strains resistant to chloroquine, mefloquine, artemisinin, and atovaquone; test: EC50 for P. falciparum strains resistant to known antimalarials; assay type: cell-based, Plasmodium falciparum; conditions: Figure S2
Procedure: After 72 h incubation at 37°C each well was fixed at room temperature for 30 min with 50 μL of 0.25% glutaraldehyde (ProSciTech) diluted in PBS. Following centrifugation at 1200 rpm for 1 min, supernatants were discarded and parasites were stained with 50 μL of 5X SYBR Green (Invitrogen) diluted in PBS. 50,000 cells were counted by flow cytometry using a Cell Lab Quanta SC – MPL Flow Cytometer (Beckman Coulter) ([Bacon et al., 2007]). Growth was expressed as a percentage of the parasitemia obtained using a vehicle control. All samples were tested in triplicate. EC50 values were determined using GraphPad Prism.

PMX = target: T2, PMX (Plasmodium falciparum, UniProt Q8IAS0); assay type: binding, P. falciparum; conditions: CETSA
T2 construct: endogenous in cells
T2 sequence (Q8IAS0 222-573): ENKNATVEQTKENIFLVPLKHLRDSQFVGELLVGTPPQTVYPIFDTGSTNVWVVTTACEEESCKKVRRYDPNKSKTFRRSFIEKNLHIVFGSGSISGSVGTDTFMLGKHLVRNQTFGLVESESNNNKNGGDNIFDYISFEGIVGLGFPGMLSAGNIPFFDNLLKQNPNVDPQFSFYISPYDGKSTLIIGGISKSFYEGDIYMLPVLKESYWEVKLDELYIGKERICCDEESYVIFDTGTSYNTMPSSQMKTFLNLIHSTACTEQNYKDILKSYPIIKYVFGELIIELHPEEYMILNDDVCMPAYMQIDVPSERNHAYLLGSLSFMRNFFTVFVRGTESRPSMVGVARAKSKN
Procedure: Lysate CETSA experiments were conducted essentially as described ([Dziekan et al., 2019]). Samples for CETSA studies were prepared using highly synchronous schizont stage P. falciparum 3D7-PMIX_HA and 3D7-PMX_HA parasites. […] After 2–4 h incubation, mature schizonts were washed once with PBS and pelleted infected red blood cells were lysed in 20 volumes of 0.15% (w/v) saponin in PBS and incubated on ice for 20 min. Parasites were washed 3 times in ice-cold PBS and the final pellet was resuspended in 10 volumes of lysis buffer (0.4% NP-40 (Roche) / PBS) and lysed by three freezing (dry ice/ethanol bath) - thawing cycles. The lysates were cleared by centrifugation at 16,000 g for 30 min and the supernatant containing soluble parasite proteins kept at −80°C until use. […] The proteins were electrophoretically transferred to nitrocellulose membrane using a dry-blotting system (iBlot, Thermo Fisher Scientific). After blocking the membrane in 5% non-fat milk in TBST (M-TBST), PMIX_HA and PMX_HA were detected with anti-HA mAb 12CA5 (produced in-house) followed by HRP-conjugated a-mouse IgG Abs (Merck). Blots were developed with ECL Western Blotting Substrate (Thermo Fisher Scientific), and the images were generated and analyzed using ChemiDoc Gel Imaging System and Image Lab Software (Bio-Rad).

P. falciparum 3D7-PMX-HA = test: EC50 in knock down parasite line 3D7-PMX-HA; assay type: cell-based, Plasmodium falciparum; conditions: presence vs absence of 2.5 mM GlcN
[4] = system: protein processing by PMIX and PMX in P. falciparum; test: Processing inhibition assays (immunoblot of merozoites and supernatants); assay type: cell-based, Plasmodium falciparum; conditions: WM4 40 nM, WM382 2.5 nM; for AMA1 processing in merozoites / ASP processing / MTRAP processing / PMIX processing in parasites / RAP1 processing / RON3 processing / Rh1 processed fragments, release into the supernatant / SERA5 processing: E64 10 μM
Procedure: Processing inhibition assays were performed as previously described ([Boyle et al., 2010]). Synchronized late trophozoite/early schizont cultures to which protease inhibitors had already been added, were passed over LD magnetic columns (Miltenyi Biotech) to remove uninfected erythrocytes. The cysteine protease inhibitor E64 (Sigma) was used at 10 μM. […] A control dish without any protease inhibitor was also included. Parasites were eluted from columns with complete RPMI 1640 culture medium to which the appropriate inhibitor at the same concentration had been added. Eluted parasites were adjusted to 5x10^6 schizonts/mL and 150 ul added per well of a 96-well flat-bottomed culture dish. […] Parasites from each condition were spun at 10000 g/10 min so that merozoite and supernatant fractions could be separately collected. Proteins from both fractions were extracted with Reducing sample buffer and separated on 4%–12% or 3%–8% acrylamide gels (NuPAGE, Invitrogen).

[5] = system: P. falciparum gametocytes; test: Standard membrane feeding assay (SMFA), transmission to mosquitoes; assay type: cell-based, Plasmodium falciparum; conditions: gametocytes treated day 13 to day 17; oocysts counted day 7 after feeding
Procedure: NF54 P. falciparum cultures were synchronized and maintained as described earlier at 5%–10% parasitemia at 4% hematocrit. Once parasitemia reached 8%–10% rings, parasites were diluted to 0.65% parasitemia in desired volume for the gametocyte cultures (10 mL for Petri dish or 6 × 5 mL for 6-well plate). Gametocyte cultures were supplied with gametocyte media consisted of O+ erythrocyte at 4% hematocrit in Roswell Park Memorial Institute (RPMI) 1640 medium supplemented with 26 mM 4-(2-hydroxyethyl)piperazine-1-ethanesulfonic acid (HEPES), 50 μg/mL hypoxanthine, 2.9% NaHCO3, and 10% heat-inactivated human serum. Sexual stage gametocytes were induced by allowing continuous growth cultures without the addition of fresh human erythrocytes ([Vaughan et al., 2012]). […] Stage V gametocytemia was determined by light microscopy examination of methanol fixed, Giemsa stained thin smear under 1,000 magnification. […]
On day 7 after feeding with gametocyte bloodmeal, infected mosquitoes were aspirated into a cup and anesthetized by incubating them at −20°C for 5 min until immobilized. […] Collected midguts were maintained in 1X phosphate buffered saline (PBS, GIBCO) until stained with mercurochrome for 20 min then placed on a glass slide and counted for oocysts by microscopy.

HepG2 cells = test: EC50 for HepG2 cells; assay type: cell-based; conditions: Homo sapiens

T1 sequence (Q8I6Z5 whole entry): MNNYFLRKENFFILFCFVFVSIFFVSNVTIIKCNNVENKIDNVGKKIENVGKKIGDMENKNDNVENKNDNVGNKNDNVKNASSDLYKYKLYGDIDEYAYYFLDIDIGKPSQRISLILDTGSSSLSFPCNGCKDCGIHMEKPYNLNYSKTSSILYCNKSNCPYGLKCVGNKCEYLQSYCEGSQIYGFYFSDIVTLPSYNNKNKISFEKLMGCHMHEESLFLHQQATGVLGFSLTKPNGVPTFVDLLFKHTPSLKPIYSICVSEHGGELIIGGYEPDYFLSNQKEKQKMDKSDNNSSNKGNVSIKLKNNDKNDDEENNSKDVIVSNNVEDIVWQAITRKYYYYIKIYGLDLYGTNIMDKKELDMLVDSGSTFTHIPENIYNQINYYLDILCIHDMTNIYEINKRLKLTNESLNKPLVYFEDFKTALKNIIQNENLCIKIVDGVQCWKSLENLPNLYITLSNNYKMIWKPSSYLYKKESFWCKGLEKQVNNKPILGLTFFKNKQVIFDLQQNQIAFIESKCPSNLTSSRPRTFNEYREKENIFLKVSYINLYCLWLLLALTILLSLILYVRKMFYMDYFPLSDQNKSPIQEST

Compound	Ki [1] [µM]	cleavage of rPMX into catalytic and pro-domain [2]	cross-resistance in drug resistant P. falciparum strains [3]	effect on thermal stability of PMX (PMX)	change of EC50 when PMX expression was decreased (P. falciparum 3D7-PMX-HA)	AMA1 processing in merozoites [4]	ASP processing [4]	MTRAP processing [4]	PMIX processing in parasites [4]	RAP1 processing [4]	RON3 processing [4]	Rh1 processed fragments, release into the supernatant [4]	SERA5 processing [4]	EBA140 processing [4]	EBA175 processing [4]	EBA181 processing [4]	MSP1 cleavage at the known SUB1 sites [4]	MSP1 cleavage by SUB2 [4]	PMX processing in the parasite [4]	Rh5 processing [4]	also measured
CC(NC(=O)c1cccc(C(c2ccccc2)N2C(=N)NC(C)(C(C)C)CC2=O)c1)c1ccccc1 (racemic) [WM4]	19.8 ± 0.5	cleavage was inhibited	no cross-resistance	stabilized PMX	significantly decreased	inhibited cleavage	ASP was processed	did not inhibit its processing	not inhibited	processing of RAP1 to p69 was inhibited	did not block processing	the large fragment cleaved by ROM4 was not released into the supernatant	accumulation of unprocessed SERA5	inhibited by both compounds	inhibited a cleavage event	a predominant unprocessed form was evident	inhibited	also inhibited	blocked cleavage of PMX	blocked processing of Rh5	Ripr processing [4]: inhibited; SUB2 second processing event [4]: inhibited this second processing event; processing of Rh2a, Rh2b and Rh4 [4]: significantly inhibited processing; oocyst numbers in mosquitoes fed treated gametocytes [5]: no significant reduction in oocyst numbers; EC50 (HepG2 cells): 14.2 ± 2.3 µM
CCC1(CC)CC(=O)N([C@@H]2CCOc3ccc(C(=O)N[C@H]4CC(C)(C)Oc5ccccc54)cc32)C(=N)N1 [WM382]	13.4 ± 0.62	cleavage was inhibited	no cross-resistance	significantly more thermostable	significantly decreased	inhibited cleavage	cleavage was inhibited	inhibited processing, although not completely	inhibited processing	prevented production of both processed forms	did and the full-length protein, as well as an additional processed product (p55), were detected	the large fragment cleaved by ROM4 was not released into the supernatant	accumulation of unprocessed SERA5	inhibited by both compounds	inhibited a cleavage event	a predominant unprocessed form was evident	inhibited	higher activity	blocked cleavage of PMX	blocked processing of Rh5	Ripr processing [4]: inhibited; SUB2 second processing event [4]: inhibited this second processing event; processing of Rh2a, Rh2b and Rh4 [4]: significantly inhibited processing; oocyst numbers in mosquitoes fed treated gametocytes [5]: potently inhibited oocyst development; EC50 (HepG2 cells): 24.8 ± 2.2 µM
